Consider 3 molecules from publication PMC10787067, “EBF2 Links KMT2D‐Mediated H3K4me1 to Suppress Pancreatic Cancer Progression via Upregulating KLLN” (Advanced Science, 2023).

In general, Kd refers to the equilibrium constant for the complex coming apart.

One experiment concerns the target T1, His‐EBF2 (Homo sapiens, UniProt Q9HAK2).
T1 construct: His‐EBF2 plasmid was constructed by inserting the CDS of EBF2 into PET‐28a vector; His; made in house; host or cells: E. coli BL21 (DE3)
T1 sequence (Q9HAK2 1-575): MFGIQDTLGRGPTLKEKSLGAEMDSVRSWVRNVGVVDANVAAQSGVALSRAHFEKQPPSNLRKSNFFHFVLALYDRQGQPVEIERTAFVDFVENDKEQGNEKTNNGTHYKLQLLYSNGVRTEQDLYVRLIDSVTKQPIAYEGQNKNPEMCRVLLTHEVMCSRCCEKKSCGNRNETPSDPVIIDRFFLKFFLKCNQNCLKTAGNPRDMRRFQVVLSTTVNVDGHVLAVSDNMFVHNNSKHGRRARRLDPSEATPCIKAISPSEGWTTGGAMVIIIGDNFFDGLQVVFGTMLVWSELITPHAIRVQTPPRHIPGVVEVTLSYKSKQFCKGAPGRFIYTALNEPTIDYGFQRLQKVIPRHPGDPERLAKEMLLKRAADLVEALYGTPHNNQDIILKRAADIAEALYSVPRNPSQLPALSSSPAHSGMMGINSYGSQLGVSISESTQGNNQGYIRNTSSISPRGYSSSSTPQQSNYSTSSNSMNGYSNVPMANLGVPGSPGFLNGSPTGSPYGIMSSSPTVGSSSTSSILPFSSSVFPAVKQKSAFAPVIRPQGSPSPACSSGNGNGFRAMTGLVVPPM
The experiment can be described thus: Peptide pull-down with purified His-EBF2 fusion protein. It is filed as binding. As to conditions: purified His-EBF2 expressed in E. coli; Figure 1C.

Another experiment has as its system His‐EBF2 fusion protein. The experiment can be described thus: Isothermal titration calorimetry (ITC). The experiment is classed as binding. As to conditions: Figure 1E. The method, then: His‐EBF2 plasmid was constructed by inserting the CDS of EBF2 into PET‐28a vector, transformed into E. coli BL21 (DE3), and cultured with isopropyl‐β‐D‐thiogalactoside (IPTG; Beyotime) at 16 °C for 12 h, […]. BL21 cells were collected and sonicated in cold PBS buffer, and His‐fusion proteins were purified with High Affinity Nickel beads (Genscript, Nanjing, China). The purity of His‐fusion proteins was evaluated by SDS‐PAGE.
A MicroCal ITC‐200 system (Malvern Instruments Ltd., UK) was used for ITC assay. Briefly, the synthesized peptides (Genscript) and proteins were all subjected to extensive dialysis against PBS. Peptides at a concentration of 1 mM were loaded into the ITC syringe, and proteins at a concentration of 100 µM into the ITC cell. Then, every 2 µL of peptide was automatically injected into the cell at 25 °C. The results of binding isotherms were analyzed using the Origin 7.0 software package (Origin Lab).

The next experiment has as its system EBF2. The experiment can be described thus: Peptide pull-down with SW1990 and PANC-1 protein extracts. It is filed as binding, Human. As to conditions: biotin-labeled peptides, protein extracts from SW1990 and PANC-1 cells; in vitro; Figure 1B. As for the experimental part:
Unmodified histone 3 (H3), H3K4me1 peptides were incubated with nuclear extract of SW1990 cells, separated by SDS‐PAGE gel, and subjected to mass spectrometry. Factors specifically associating with H3K4me1 were screened by peptide pulldown coupled with mass spectrometry analysis. Mass spectrometry‐based proteomic analysis yielded a plethora of putative H3K4me1‐associated proteins, including many known histone or DNA modifiers, readers, and chromatin remodelers (Table S1, Supporting Information). Given that KMT2D executes its antitumor function via catalyzing the formation of H3K4me1 in pancreatic cancer, we explored the genes associated with H3K4me1.
The product was separated by sodium dodecyl sulfate‐polyacrylamide gel electrophoresis (SDS‐PAGE) with silver staining. Protein bands of interest were excised and subjected to electrospray‐ion trap tandem mass spectrometry (LCQ‐Deca, Finnigan).

Experiment [1] has as its target recombinant His-tagged EBF2 fusion protein (human) (UniProt Q9HAK2). The experiment can be described thus: MST; NT-647-NHS-labelled EBF2 at 100 nM in PBS with 0.05% Tween-20, pH 7.4; peptides 10 nM to 500 uM; Monolith NT.115.
For another experiment, the system named is H3K4me1. The experiment can be described thus: Co-IP of Flag-tagged EBF2-WT or EBF2-H239A with H3K4me1 in SW1990 cells. It is filed as binding, Human. As to conditions: Co-IP on SW1990 cells; Figure S1B. As for the experimental part: Co‐immunoprecipitation assay was performed as described previously.^[ [61] ^] Briefly, SW1990 cells were transfected with indicated constructs or treated with GSK‐LSD1, washed with cold phosphate buffered saline (PBS), and lysed with cold cell lysis buffer. Then, the lysates were incubated with appropriate specific antibodies or normal rabbit IgG at 4 °C overnight in constant rotation, followed by the addition of protein A/G Sepharose beads and incubation for 2 h at 4 °C. The beads were then washed five times by the lysis buffer. Bead‐bound proteins were resolved by SDS‐PAGE and detected by immunoblotting using indicated antibodies.

Positions count from the first letter of the chain named. Names and notes keep the numbering of the source.

Regarding `CNCCCC[C@H](NC(=O)[C@@H](NC(=O)[C@H](CCCNC(=N)N)NC(=O)[C@H](C)N)[C@@H](C)O)C(=O)N[C@@H](CCC(N)=O)C(=O)N[C@H](C(=O)N[C@@H](C)C(=O)N[C@@H](CCCNC(=N)N)C(=O)N[C@@H](CCCCN)C(=O)N[C@@H](CO)C(=O)N[C@H](C(=O)NCC(=O)NCC(=O)N[C@@H](CCCCN)C(=O)N[C@@H](C)C(=O)N1CCC[C@H]1C(=O)N[C@@H](CCCNC(=N)N)C(=O)N[C@@H](CCCCN)C(=O)N[C@@H](CCC(N)=O)C(=O)O)[C@@H](C)O)[C@@H](C)O` [H3K4me1], the “pull-down of purified His-EBF2 by peptide” value at His‐EBF2 is “pulled down by H3K4me1 peptide”. Also, the “affinity of His-EBF2 to peptide, in words” value with His‐EBF2 fusion protein is on record as “strong affinity”. Also, the “preferential binding of EBF2 to peptide” value in the experiment with EBF2 is “preferential binding of EBF2 to H3K4me1 over H3K4me3”.

On to “H3K4me1 peptide (C-terminal biotin-tagged 19 amino acid N-terminal peptide of histone H3, mono-methylated on Lys 4) (from UniProt P68431 2-20)”, for which the Kd in experiment [1] came to 7.37 µM.

B1: EBF2‐H239A: Flag-tagged EBF2-H239A; H239 is the site for H3K4me1 binding to EBF2 protein (protein)
chain: T1 sequence (Q9HAK2 1-575) with H239A
Consider B1, for which the “ability to bind H3K4me1 compared with EBF2-WT” value with H3K4me1 was “significantly weaker than that of EBF2‐WT”.
